Entries after “also recorded” stand apart in the source; their conditions may differ.
Columns and labels:
[1] = tested on: human APP co-expressed in HEK 293T cells; assay: α-CTF produced by APP co-expressed in HEK 293T cells (Western blot); type: cell-based; details: Western blot, vs GFP control
Procedure: • a) A plasmid expressing the target protein in mammalian cells was constructed, and the protein expression promoter is CAG. • b) The target protein was expressed in HEK 293T cell line. Cells were subcultured one day before transfection, and transfection was performed when the degree of cell adhesion reached 70%-80%. The transfection reagent was lipofectamine2000 (ThermoFisher). • c) 4-6 hours post transfection, the medium were replaced with fresh cell culture medium. • d) 36-48 hours post transfection, the cells were lysed (10% 1M tris-HCl (pH=6.8), 4% SDS, 20% glycerol, 0.01% bromophenol blue), and the protein samples were collected and used for Western blot or stored in a −80° C. freezer. • e) Polyacrylamide gel electrophoresis. Before protein loading, the protein was boiled at 98° C. for 10 min, and then centrifuged at 12000 rpm for 10 min. Electrophoresis: 80V for the upper stacking gel; 120V for the lower separating gel. • f) Protein transfer. The filter paper was soaked in the electrophoresis solution before use, and the PVDF membrane was put in methanol for 10s to activate, and the gel after electrophoresis was taken out from the electrophoresis tank, put in the order of filter paper—PVD membrane—gel-filter paper from bottom to top, and they were put into the transfer instrument, with transferring in constant current at 0.1 A for 70 min. • g) Blocking and antibody incubation: the transferred PVDF membrane was placed in 5% BSA/TBST blocking solution, and blocked on a shaker at room temperature for 1 hour. The primary antibody was used to incubate at 4° C. overnight on a shaker (12-16 h); 1×TBST was used to wash three times, once every 10 minutes; the secondary antibody was used to incubate, shaked at room temperature for 1-2 h; 1×TBST was used to wash three times, once every 10 minutes. • h) Imaging by development: development was performed with ECL chemiluminescence hypersensitive chromogenic reagent.
(§1) Plasmids were transfected in HEK 293T or N2A cells for 36-48 hours and then lysed in cell lysis buffer [10% 1M tris-HCl (pH=6.8), 4% SDS, 20% glycerol, 0.01% bromophenol blue]. Lysates were shaken at room temperature for 10 min, then boiled for 10 min, and centrifuged at 12,000×g for 10 min. Proteins were run on 8% or 12% Tris-glycine SDS-PAGE and transferred to PVDF membranes (Life Technologies). Samples were incubated overnight at 4° C. with primary antibody diluted in 5% BSA buffer (in 1×TBST). After washing 3 times with 1×TBST, they were incubated with secondary antibody diluted in 5% BSA buffer (in 1×TBST) for 2 hours at room temperature. Finally, after washing 3 times with 1×TBST, the signal was detected by ECL Western blotting substrate (Solarbio, PE0010).
(§2) Data were analyzed by GraphPad Prism software (v6) using unpaired, paired, or one-sample t-tests. Aβ40 and Aβ42 levels were normalized to the corresponding GFP controls. α-CTF levels were normalized to FL-APP and corresponding GFP controls. All data are represented as mean±SEM. Statistical significance was defined as p<0.05. One, two, three and four stars (*) in the graph indicate p-values <0.05, <0.01, <0.001 and <0.0001, respectively.

[2] = tested on: APP co-expressed in mouse neuron cell line N2A; assay: α-CTF produced by APP co-expressed in N2A cells (Western blot); type: cell-based; details: Western blot, vs GFP control
Procedure: as §1, §2

[3] = tested on: ADAM10, BACE1, PS1 and PS2; assay: mRNA (qRT-PCR) and protein (Western blot) expression of APP secretases in HEK 293T cells; type: cell-based, human; details: qRT-PCR and Western blot, vs GFP control
Procedure: • a) A plasmid expressing the target protein in mammalian cells was constructed, and the protein expression promoter is CAG. • b) The target protein was expressed in HEK 293T cell line. Cells were subcultured one day before transfection, and transfection was performed when the degree of cell adhesion reached 70%-80%. The transfection reagent was lipofectamine2000 (ThermoFisher). • c) 4-6 hours post transfection, the medium were replaced with fresh cell culture medium. • d) 36-48 hours post transfection, the cells were lysed (10% 1M tris-HCl (pH=6.8), 4% SDS, 20% glycerol, 0.01% bromophenol blue), and the protein samples were collected and used for Western blot or stored in a −80° C. freezer. • e) Polyacrylamide gel electrophoresis. Before protein loading, the protein was boiled at 98° C. for 10 min, and then centrifuged at 12000 rpm for 10 min. Electrophoresis: 80V for the upper stacking gel; 120V for the lower separating gel. • f) Protein transfer. […]
Quantitect SYBR-Green qRT-PCR kit from Qiagen was used to quantitatively analyze the relative content of mRNA. qRT-PCR primers were listed in Table 2. […]

[4] = tested on: wild-type mice; assay: Endogenous Aβ40 in brain of wild-type mice after AAV neuronal expression (ELISA); type: in vivo, mouse; details: hSyn promoter, vs GFP

Substance: ApoE2: human apolipoprotein E2, full-length 299 amino acid residues, SEQ ID NO: 12
- α-CTF produced by co-expressed APP [1]: can significantly increase α-CTF; also recorded: significantly increased the α-CTF levels
- α-CTF produced by co-expressed APP [2]: significantly increased the α-CTF levels
- mRNA and protein expression of ADAM10, BACE1, PS1 and PS2 [3]: not altered
- endogenous Aβ40 in the brain [4]: also reduce endogenous Aβ40 production; also recorded: reduced endogenous Aβ40 in the brain of mice
